Values of other authors in patent US20150141518A1, “WATER-MISCIBLE STABLE SOLUTION COMPOSITION FOR PHARMACEUTICALLY ACTIVE INGREDIENTS THAT ARE POORLY SOLUBLE IN WATER AND SUSCEPTIBLE TO CHEMICAL DEGRADATION” (Emphascience, Inc., priority 2013, published 2015).

What was measured:
[1] = accelerated at extremes of pH and higher temperatures
[2] = room temperature

overall rate of chemical degradation of paracetamol in solution [1]: first order kinetics | solubility of paracetamol in water [2]: ca. 13 mg/mL
Structure (SMILES): CC(=O)Nc1ccc(O)cc1 [paracetamol]
